These results are taken from patent EP4527828A1, “BIPHENYL COMPOUND, PHARMACEUTICAL COMPOSITION, METHOD FOR PREPARING SAME, AND USE THEREOF” (Longivitron (Suzhou) Biotechnology Co., Ltd, priority 2022, dated 2023).

Like-named read-outs stand apart in the source and are kept apart here.

One assay concerns the target T1, LAG3/MHCII (Homo sapiens, UniProt P18627).
T1 sequence (P18627 23-450 limits assumed): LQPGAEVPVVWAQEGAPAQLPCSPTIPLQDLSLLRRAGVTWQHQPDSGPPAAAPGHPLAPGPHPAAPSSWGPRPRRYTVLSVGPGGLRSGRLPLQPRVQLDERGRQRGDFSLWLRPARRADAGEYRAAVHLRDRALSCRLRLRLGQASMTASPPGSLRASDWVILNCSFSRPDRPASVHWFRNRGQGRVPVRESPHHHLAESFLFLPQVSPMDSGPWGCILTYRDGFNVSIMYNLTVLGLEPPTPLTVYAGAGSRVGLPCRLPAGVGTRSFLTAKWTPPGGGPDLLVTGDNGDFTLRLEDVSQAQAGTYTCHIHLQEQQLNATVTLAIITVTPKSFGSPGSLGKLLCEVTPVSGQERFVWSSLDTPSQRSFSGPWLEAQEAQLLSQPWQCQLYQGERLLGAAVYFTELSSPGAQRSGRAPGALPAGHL
Kind of assay: HTRF binding inhibition of LAG3 and its ligand MHCII. The following applies: binding inhibition LAG3/MHCII. As for the experimental part:
HTRF (Homogeneous time-resolved fluorescence) is based on two techniques, fluorescence resonance energy transfer (FRET) and time-resolved fluorescence (TRF). The detection was carried out using a 384-well plate. 2 µL of a compound to be tested with an appropriate concentration was collected, 4 µL of Tag1-LAG3 protein (with a final concentration of 10 nmol·L^-1) was added, 4 µL of Tag2-MHCII (with a final concentration of 20 nmol·L^-1) was added, and the plate was incubated at room temperature for 15 min. 10 µL of Anti-Tag1-Tb working solution (prepared by adding 25 µL of Anti-Tag1-Tab mother solution to 2475 µL of dilution buffer) was added, 10 µL of Anti-Tag2-XL665 working solution (prepared by adding 25 µL of Tag2-XL665 mother solution to 2475 µL of dilution buffer) was added, and the plate was sealed with a film and incubated at room temperature for 1 h. The detection was carried out using a Perkin Elma Envision instrument.

For the next assay, the target named is T2, Mouse LAG3 protein (Mus musculus, UniProt Q61790).
T2 sequence (Q61790 24-521): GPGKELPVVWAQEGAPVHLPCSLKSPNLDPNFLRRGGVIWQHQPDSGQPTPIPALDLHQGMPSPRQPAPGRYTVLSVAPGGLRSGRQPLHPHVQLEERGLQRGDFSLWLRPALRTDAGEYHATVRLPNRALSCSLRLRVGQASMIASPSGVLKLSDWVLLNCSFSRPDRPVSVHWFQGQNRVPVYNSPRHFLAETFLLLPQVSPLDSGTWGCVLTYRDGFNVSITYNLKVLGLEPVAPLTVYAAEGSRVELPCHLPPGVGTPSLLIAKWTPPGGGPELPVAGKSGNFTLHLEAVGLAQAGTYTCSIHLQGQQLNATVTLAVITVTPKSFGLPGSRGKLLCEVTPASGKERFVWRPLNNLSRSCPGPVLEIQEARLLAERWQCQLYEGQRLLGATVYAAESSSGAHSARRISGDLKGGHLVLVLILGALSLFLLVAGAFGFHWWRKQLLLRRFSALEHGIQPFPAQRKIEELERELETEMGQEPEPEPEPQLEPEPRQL
Kind of assay: SPR interaction assay, CM5 chip amino coupling, mouse LAG3. In kind it is binding. The note with it: for Kd / Rmax / Note / kon / koff: ligand Mouse LAG3 protein; for Note: bound or not bound; for kon: read-out: Ka; for koff: read-out: Kd. An excerpt:
(§1) A surface plasmon is an electromagnetic wave on a metal surface and is generated by the interaction of photons and electrons which are freely vibrated. Surface plasmon resonance (SPR) is an optical phenomenon that occurs on the surfaces of two media, and such a phenomenon can be induced by photons or electrons. When light enters an optically thinner medium from an optically denser medium, the phenomenon of total reflection occurs, and an evanescent wave is generated and enters the optically thinner medium. When the totally reflected evanescent wave meets the plasmon wave on the metal surface, resonance may occur, the energy of the reflected light decreases, and a resonance peak occurs on the energy spectrum of the reflected light. Such a resonance is called surface plasmon resonance. The angle of incidence causing the surface plasmon resonance is called an SPR angle. An SPR biosensor provides a sensitive, non-labeled detection technique for monitoring intermolecular interactions in real time. The sensor detects the change in the SPR angle, and the SPR is related to the refractive index of the metal surface. When an analyte binds to the chip surface, the refractive index of the chip surface changes, thus causing the change in the SPR angle. This is the basic principle for the SPR biosensor to detect intermolecular interactions in real time. During the interaction analysis, the change in the SPR angle is recorded on the sensorgram in real time.
Through the information query, the theoretical isoelectric point of the LAG3 protein is about 9.82, and the amino coupling method was contemplated to immobilize the protein. Since the main ligands of the LAG3 protein are FGL1 and MHCII proteins, after the LAG3 protein was coupled, the FGL1 protein sampling method was used to verify the protein activity.
(§2) Protein coupling buffer solution: 1.05× PBS-P+; 1.02× PBS-P+
(§3) Interaction buffer solution: 1.0× PBS-P+, 5% DMSO; 1.0× PBS-P+, 2% DMSO
In this experiment, by using the CM5 chip amino coupling method, the human LAG3 protein was immobilized to the Fc2 or Fc3 channel, and the mouse LAG3 protein was immobilized to the Fc3 or Fc4 channel.
LAG3 protein coupling conditions were as follows: the concentration was about 25 µg/mL, the system was sodium acetate solution with a pH of 5.5, the chip activation time was 420 s, and the blocking time was 420 s.
LAG3 protein coupling conditions were as follows: the concentration was about 50 µg/mL, the system was sodium acetate solution with a pH of 4.5, the chip activation time was 420 s, and the blocking time was 420 s.

A further assay has as its target T3, Human FGL1 protein (Homo sapiens, UniProt Q08830).
T3 sequence (Q08830 23-312): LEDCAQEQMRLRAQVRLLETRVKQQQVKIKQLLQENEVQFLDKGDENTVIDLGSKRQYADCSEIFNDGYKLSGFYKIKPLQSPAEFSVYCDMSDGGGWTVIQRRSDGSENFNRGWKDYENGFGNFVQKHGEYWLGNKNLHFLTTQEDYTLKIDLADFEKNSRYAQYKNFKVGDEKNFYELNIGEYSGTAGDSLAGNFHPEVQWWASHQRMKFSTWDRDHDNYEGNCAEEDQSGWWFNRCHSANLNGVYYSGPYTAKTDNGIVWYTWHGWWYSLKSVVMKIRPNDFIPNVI
Nature of the assay: SPR interaction assay, human FGL1. In kind it is binding. The note with it: for Note: bound or not bound; for kon: read-out: Ka; for koff: read-out: Kd.
From the text: as §1, §2, §3

Where [1] appears, read: SPR, ligand FGL1 protein, read-out: KD.
Setting [2] is: text summary of Table 4, read-out: affinities with the new ligand FGL1 of LAG3.

As a reminder, the IC50 is the concentration at which inhibition is half-maximal. Low readings indicate greater potency in that assay, high ones weaker potency in that assay. With `CCCCCCOc1ccc2cc1-c1cc(ccc1OCCCCCC)C(=O)CCCCCC2=O` [Compound 4], the IC50 at LAG3/MHCII was found to be 18 µM. For the same molecule, on Mouse LAG3 protein, the “interaction with the mouse LAG3 protein” value was “interacts with the mouse LAG3 protein”, the Kd turned out to be 13.2 µM, the Rmax was determined as 5.214 RU and the Note result is listed as “Bound”. In addition, on Mouse LAG3 protein, the kon came out at 1060 M⁻¹ s⁻¹ and the koff amounted to 0.014 s⁻¹. Besides, at Human FGL1 protein (SPR), the “interaction with the human FGL1 protein” value was “interacts with the human FGL1 protein”. In addition, at Human FGL1 protein (SPR, ligand FGL1 protein), the Rmax was 14.02 RU, the Note result is “Bound”, the kon worked out at 2130 M⁻¹ s⁻¹ and the koff is 0.0504 s⁻¹. In addition, at Human FGL1 protein (setting [1]), the Kd is 23.2 µM. At Human FGL1 protein (setting [2]), the Kd is about 10 µM.
`CCCCCCOc1ccc(C(=O)O)cc1-c1cc(C(=O)NCCCCNC(=O)C(F)(F)F)ccc1OCCCCCC` [Compound 8]: the IC50 at LAG3/MHCII amounted to 8.34 µM. At Mouse LAG3 protein, the “interaction with the mouse LAG3 protein” value is recorded as “interacts with the mouse LAG3 protein”, the Kd was found to be 5.42 µM, the Rmax came to 3.955 RU and the Note result was “Bound”. For the same molecule, at Mouse LAG3 protein, the kon came to 1870 M⁻¹ s⁻¹ and the koff was found to be 0.0101 s⁻¹. Also, on Human FGL1 protein (SPR), the “interaction with the human FGL1 protein” value is “interacts with the human FGL1 protein”. Also, at Human FGL1 protein (SPR, ligand FGL1 protein), the Rmax amounted to 28.91 RU, the Note entry is recorded as “Bound”, the kon stood at 1470 M⁻¹ s⁻¹ and the koff was found to be 0.0231 s⁻¹. Moreover, the Kd at Human FGL1 protein (setting [1]) was 15.7 µM. In addition, the Kd on Human FGL1 protein (setting [2]) was about 10 µM.
